Source: patent US11135320B2, “Radioligands for pretargeted pet imaging and methods of their therapeutic use” (priority 2015, dated 2021)
Values joined by “and” are separate entries in the source; they are usually repeats but may differ in a detail not shown here. Identical values can stand only once.

Legend:
[1] = Stability of ^64Cu-labeled tetrazines in PBS (pH 7.4) at 37° C.; assay type: physicochemical; conditions: PBS pH 7.4, 37° C., 2 h
Protocol: (§1) Next, the aqueous and serum stabilities were determined via incubation at 37° C. (Tables 2-3). […] For example, after a 4 h incubation, 77.8±3.5% and 81.2±3.7% of ^64Cu-Tz-PEG7-NOTA and ^64Cu-Tz-SarAr, respectively, remained intact. Importantly, the release of ^64Cu^2+ from the chelators was not observed in any of the trials. Despite the rates of decomposition, the speed of the IEDDA reaction was faster than short blood half-lives of these small molecules; therefore, the radioligands remained functional in vivo.
(§2) ^64Cu-Tz-PEG7-NOTA and ^64Cu-Tz-SarAr (1000 μCi) were incubated on an agitating thermomixer (300 rpm) at 37° C. in 500 μL of either PBS (pH 7.4) or human serum. At each prescribed time-point, 100 μL of the solution was removed and placed into a 1.7 mL microcentrifuge tube. For the PBS samples, the compound was injected directly onto the HPLC and analyzed using a gradient of 5:95 CH3CN:H2O (both with 0.1% TFA) to 95:5 CH3CN:H2O over 15 min. For the serum samples, 100 μL cold CH3CN was added to the serum, and the resultant mixture was vortexed and centrifuged at 10,000 rpm for 10 min. After this, the clear supernatant was removed, moved to a new 1.7 mL microcentrifuge tube, and centrifuged again at 10,000 rpm for 10 min. The clear supernatant from this second spin was then injected into the HPLC and analyzed using a gradient of 5:95 CH3CN:H2O (both with 0.1% TFA) to 95:5 CH3CN:H2O over 15 min. The residual protein from the centrifuge spins was checked for radioactivity, and only minimal residual activity remained (less than 1% of the starting ^64Cu for each ^64Cu-Tz-PEG7-NOTA and ^64Cu-Tz-SarAr). The fraction of intact ^64Cu-Tz-PEG7-NOTA or ^64Cu-Tz-SarAr was determined by integrating the peak corresponding to the compound (tR=9.7 and 8.7 minutes, respectively) and dividing by the integral over the whole HPLC run. Both the injection loop and column were monitored to detect the presence of residual activity. All experiments were performed in triplicate.

[2] = Stability of ^64Cu-labeled tetrazines in human serum at 37° C.; assay type: in vitro ADME; conditions: 2 h
Protocol: as §1, §2

[3] = Acute biodistribution of ^64Cu-labeled tetrazine radioligands in healthy mice; assay type: in vivo, athymic nude mice; conditions: for Large Intestine activity concentration / Small Intestine activity concentration / Stomach activity concentration: contents not removed
Protocol: (§3) Mice were administered ^64Cu-Tz-NOTA (25-30 μCi in 200 μL 0.9% sterile saline) via intravenous tail vein injection. Animals (n=4 per group) were euthanized by CO2(g) asphyxiation at 1, 4, and 24 h after injection. After asphyxiation, tissues were removed, rinsed in water, dried in air for 5 min, weighed, and counted in a gamma counter calibrated for ^64Cu. Counts were converted into activity using a calibration curve generated from known standards. Count data were background- and decay-corrected to the time of injection, and the percent injected dose per gram (% ID/g) for each tissue sample was calculated by normalization to the total activity injected. Contents within the stomach, small intestine, and large intestine were not removed for the measurements.
as §3, with “^64Cu-Tz-PEG7-NOTA” for “^64Cu-Tz-NOTA”
as §3, with “^64Cu-Tz-SarAr” for “^64Cu-Tz-NOTA”
as §3, with “Healthy female athymic nude mice (n=4 per radioligand) were” for “Mice were”, “administered ^64Cu-Tz-PEG7-NOTA or ^64Cu-Tz-SarAr” for “administered ^64Cu-Tz-NOTA”, “vein injection (t=0).” for “vein injection.”, “4, 12,” for “4,”, “injected.” for “injected. Contents within the stomach, small intestine, and large intestine were not removed for the measurements.”

For `O=C([O-])CN1CCN(CC(=O)[O-])CC(Cc2ccc(NC(=O)CCCC(=O)NCc3ccc(-c4nncnn4)cc3)cc2)N(CC(=O)[O-])CC1.[64Cu+2]` (centres unmarked) [^64Cu-Tz-NOTA], the “% Intact (PBS)” value [1] was 91.6 +/− 1.9%, the “% Intact (Serum)” value [2] was 85.4 +/− 6.6% and the Blood activity concentration ([3]; 1 h p.i.) was 0.23 ± 0.01 % ID/g. It also gave a Bone activity concentration ([3]; 1 h p.i.) of 0.10 ± 0.03 % ID/g, a Heart activity concentration ([3]; 1 h p.i.) of 0.10 ± 0.02 % ID/g and a Kidney activity concentration ([3]; 1 h p.i.) of 0.53 ± 0.09 % ID/g. For the same compound, the Liver activity concentration ([3]; 1 h p.i.) was 1.45 ± 0.39 % ID/g, the Lung activity concentration ([3]; 1 h p.i.) was 0.38 ± 0.06 % ID/g and the Muscle activity concentration ([3]; 1 h p.i.) was 0.04 ± 0.02 % ID/g. The Spleen activity concentration ([3]; 1 h p.i.) was 0.15 ± 0.05 % ID/g, the “Large Intestine activity concentration” value ([3]; 1 h p.i.) was 11.58 ± 2.19 % ID/g and the “Small Intestine activity concentration” value ([3]; 1 h p.i.) was 3.14 ± 1.47 % ID/g. For the same compound, the Stomach activity concentration ([3]; 1 h p.i.) was 0.12 ± 0.04 % ID/g, the Blood activity concentration ([3]; 4 h p.i.) was 0.13 ± 0.01 % ID/g and the Bone activity concentration ([3]; 4 h p.i.) was 0.07 ± 0.04 % ID/g. It also gave a Heart activity concentration ([3]; 4 h p.i.) of 0.11 ± 0.02 % ID/g, a Kidney activity concentration ([3]; 4 h p.i.) of 0.33 ± 0.07 % ID/g and a Liver activity concentration ([3]; 4 h p.i.) of 0.42 ± 0.13 % ID/g. The Lung activity concentration ([3]; 4 h p.i.) was 0.27 ± 0.08 % ID/g, the Muscle activity concentration ([3]; 4 h p.i.) was 0.03 ± 0.02 % ID/g and the Spleen activity concentration ([3]; 4 h p.i.) was 0.09 ± 0.02 % ID/g. The “Large Intestine activity concentration” value ([3]; 4 h p.i.) was 10.0±1.3 % ID/g and 10.03 ± 1.33 % ID/g, the “Small Intestine activity concentration” value ([3]; 4 h p.i.) was 0.17 ± 0.07 % ID/g and the Stomach activity concentration ([3]; 4 h p.i.) was 0.05 ± 0.03 % ID/g. It also gave a Blood activity concentration ([3]; 24 h p.i.) of 0.07 ± 0.01 % ID/g, a Bone activity concentration ([3]; 24 h p.i.) of 0.03 ± 0.01 % ID/g and a Heart activity concentration ([3]; 24 h p.i.) of 0.09 ± 0.01 % ID/g. The Kidney activity concentration ([3]; 24 h p.i.) was 0.22 ± 0.07 % ID/g, the Liver activity concentration ([3]; 24 h p.i.) was 0.21 ± 0.06 % ID/g and the Lung activity concentration ([3]; 24 h p.i.) was 0.21 ± 0.02 % ID/g. The Muscle activity concentration ([3]; 24 h p.i.) was 0.03 ± 0.03 % ID/g, the Spleen activity concentration ([3]; 24 h p.i.) was 0.08 ± 0.02 % ID/g and the “Large Intestine activity concentration” value ([3]; 24 h p.i.) was 1.4±0.7 % ID/g and 1.37 ± 0.65 % ID/g. The “Small Intestine activity concentration” value ([3]; 24 h p.i.) was 0.10 ± 0.02 % ID/g and the Stomach activity concentration ([3]; 24 h p.i.) was 0.18 ± 0.11 % ID/g.
